This assay concerns CEM cells HIV-1 protection, formazan growth assay. Kind of assay: NCI AIDS Antiviral Assay. The following applies: for IC50: measured here: growth of uninfected CEM cells. The method, boiled down:
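Protection of CEM cells against HIV-1 was scored from cell growth (soluble formazan) across five concentrations, with parallel uninfected cells. Lack of protection may reflect toxicity.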

Several values for one entry are separate records, joined by “and”; a condition that tells them apart may be missing. Identical values can stand only once. Activity calls are given as the source filed them.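 How the source made its calls: active means compounds giving half or more protection of infected cells from virus-caused growth loss, again on retest; inactive means the rest.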 Some results are limits rather than exact numbers.

With `CC(=O)OC1C[N+]2(CCc3ccccc3)CCC1CC2` (configuration not stated), the EC50 was more than 708 µM and the half-inhibitory concentration (IC50) is more than 708 µM.
For the compound `CO/N=C1\CC(NC(=O)C(F)(F)F)c2ccsc21` (configuration not stated), the EC50 was more than 200 µM and the half-inhibitory concentration (IC50) is more than 200 µM.
Regarding `COC1(C)C[C@@]23CC[C@@H]4C(C)(C(=O)O)CCCC4(C)[C@@H]2CC[C@@H]1C3` (some centres not stated), the EC50 was more than 200 µM and the 50% inhibitory concentration (IC50) turned out to be 120 µM.
Regarding `COc1ccc(-c2coc3cc(O)cc(O)c3c2=O)cc1`, the EC50 is more than 200 µM and the IC50 was 12.6 µM.
Taken in the same sequence, the figures for `O=c1oc2c3ccc4ccccc4c3n(CCCN3CCCCC3)c2c2ccccc12` were more than 16.2 µM and 7.76 µM.
Regarding `S=C(NNc1ccccc1)SSSC(=S)NNc1ccccc1`, the EC50 is more than 200 µM and the half-maximal inhibitory concentration (IC50) stood at 26.3 µM.
On to `NC(=O)NC(S(=O)(=O)O)S(=O)(=O)O`, for which the result was inactive.
For the compound `N#CCCC1(CCC#N)CCCCCCCCC(CCC#N)(CCC#N)C(=O)C1=O`, the EC50 was more than 200 µM and the concentration for half-maximal inhibition (IC50) is more than 200 µM.
For `CC1(C)OC(=O)C(C#N)=C1/C=C/c1coc2ccc(Cl)cc2c1=O`, the EC50 is more than 29.5 µM and the IC50 is more than 29.5 µM.
On to `CC(=O)c1ccc2c(c1)N(CCCN1CCN(CCO)CC1)c1ccccc1S2`, for which the EC50 was more than 200 µM and the concentration for half-maximal inhibition (IC50) stood at 10.2 µM.
Taken in the same sequence, the figures for `Cn1c(=O)cc(C=Nc2ccc(O)cc2)c2ccccc21` were more than 200 µM and 1.74 µM.
For the compound `c1ccc(-n2nc3ccc4nonc4c3n2)cc1`, the EC50 was more than 200 µM and the concentration for half-maximal inhibition (IC50) is more than 200 µM.
Consider `C/C(=N/N=C(\[O-])c1ccncc1)C(F)(F)F.C/C(=N\N=C(/[O-])c1ccncc1)C(F)(F)F.[Cu+2]`, for which the EC50 was more than 200 µM and the half-maximal inhibitory concentration (IC50) turned out to be 18.2 µM.
As for `O=C(NCP(=O)(c1ccccc1)c1ccccc1)OCc1ccccc1`, the EC50 is more than 200 µM and the IC50 is more than 200 µM.
As to `C[Si](C)(C)C#CC#C[Si](C)(C)C.[C-]#[O+].[C-]#[O+].[C-]#[O+].[C-]#[O+].[C-]#[O+].[C-]#[O+].[C-]#[O+].[C-]#[O+].[C-]#[O+].[C-]#[O+].[C-]#[O+].[C-]#[O+].[Co].[Co].[Co].[Co]`, the EC50 was more than 1.91 µM and the IC50 is more than 1.91 µM.
On to `CC(=O)NC(=O)NC1=NCCC(=O)N1CCc1c[nH]c2ccccc12`, for which the EC50 was more than 200 µM and the IC50 is more than 200 µM.
For `COc1cc2c[n+](C)c3c(c2cc1OC)Cc1cc(OS(C)(=O)=O)c(OC)cc1-3`, the EC50 was more than 57.5 µM and the concentration for half-maximal inhibition (IC50) came out at 10.5 µM.
Regarding `COc1nc(N)c(NC2OC(CO)C(O)C2O)c(=O)[nH]1` (configuration not stated), the EC50 is more than 200 µM; the IC50 was 112 µM and 126 µM.
Take `Cc1cccc(C)c1NC(=O)CCC(=O)CC(=O)C(C)C`: the EC50 was more than 123 µM and the half-maximal inhibitory concentration (IC50) is more than 123 µM.
`O=S(=O)(O)OCCOc1ccc(S(=O)(=O)c2ccc(OCCOS(=O)(=O)O)cc2)cc1`: the EC50 was more than 200 µM and the concentration for half-maximal inhibition (IC50) is more than 200 µM.
For `NNC1=Nc2ccc(Cl)cc2C(=S)N2CSCC12` (configuration not stated), the EC50 is more than 200 µM and the IC50 was more than 200 µM.
Turning to `N#CC(C(=O)CCC(=O)Nc1cccc(C(F)(F)F)c1)c1ccccc1` (configuration not stated), the EC50 was more than 692 µM and the half-inhibitory concentration (IC50) is more than 692 µM.
Take `COc1ccc(N(C)Sc2ccccc2)cc1`: the EC50 was more than 200 µM and the IC50 is 38 µM.
`C[N+](C)(CCCCCC[N+](C)(C)CC(=O)O)CC(=O)O`: the EC50 is more than 550 µM and the half-inhibitory concentration (IC50) is more than 550 µM.
Take `COc1cccc(C2c3cc4c(cc3OC(NNS(=O)(=O)c3ccc(C)cc3)C2C)OCO4)c1OC` (configuration not stated): the EC50 is more than 200 µM and the IC50 came out at 1.86 µM.
On to `CN1CCc2ccccc2/C(=C(/O)c2ccccc2)C1=O`, for which the outcome was inactive.
On to `CCCCCCCCCCC(c1cc(Cl)c(OC)c(C(=O)OC)c1)c1cc(Cl)c(OC)c(C(=O)OC)c1`, for which the EC50 is more than 38.9 µM and the IC50 is more than 38.9 µM.
Take `CN(CN(C)/N=C/c1ccc(Cl)cc1)/N=C/c1ccc(Cl)cc1`: the outcome was inactive.
As for `NC12CC3CC(C1)CC(Cl)(C3)C2`, the EC50 was more than 1120 µM and the IC50 was more than 1120 µM.
In the case of `COCCCC(NC(=O)C(CC(C)C)NC(=O)OCc1ccc(OC)cc1)C(N)=O` (configuration not stated), the EC50 was more than 200 µM and the IC50 was found to be 182 µM.
As to `CCOC(=O)c1c(-c2ccccc2)oc(=O)c(Cc2cccc3cccnc23)c1-c1ccccc1`, the EC50 was more than 200 µM and the IC50 was more than 200 µM.
Take `C/C1=C/C(O)C/C(C)=C\C(O)C(=O)/C=C/C2C(CC1)C2(C)C` (configuration not stated): the EC50 is more than 200 µM and the 50% inhibitory concentration (IC50) is more than 200 µM.
With `CC1=C/C(=N\OCC(=O)O)CC(c2ccc(C(C)C)cc2)C1` (configuration not stated), the EC50 was more than 200 µM and the IC50 turned out to be 97.7 µM.
For `O=[N+]([O-])c1ccc(S(=O)(=O)N=Ic2ccccc2)cc1`, the EC50 was more than 200 µM and the 50% inhibitory concentration (IC50) was more than 200 µM.
Consider `Cc1cc(C)c2c(c1)CSCc1cc(C)cc(C)c1-2`, for which the result was inactive.
For the compound `CCOC(=O)/C(=C/c1ccc2ccccc2c1)P(=O)(OCC)OCC`, the EC50 was more than 100 µM and the half-inhibitory concentration (IC50) worked out at 24 µM.
Regarding `CC(C)Oc1c(-c2ccc(F)cc2)c(O)c2c3c1oc(=O)n3C=CC2C` (configuration not stated), the EC50 is 13.2 µM and the IC50 turned out to be 14.8 µM.
In the case of `Clc1ccc(-c2nnc3n2NC(c2ccccc2)S3)c(Cl)c1` (configuration not stated), the EC50 was more than 85.1 µM and the 50% inhibitory concentration (IC50) was determined as 69.2 µM.
Taken in the same sequence, the figures for `CN(C)CCNCc1ccc(-c2cccc(-c3ccc(CNCCN(C)C)cc3)n2)cc1` were more than 204 µM and 2.45 µM.
For the compound `Cc1cc2c(=O)cc(-c3ccccc3Cl)oc2c(C(=O)O)c1C`, the EC50 was more than 200 µM and the half-maximal inhibitory concentration (IC50) is more than 200 µM.
With `Cc1cccc(C2NC(=S)N3C(c4cccc(C)c4)NC(=S)N23)c1` (configuration not stated), the result was inactive.
Turning to `COC(=O)[C@]1(C)CCC[C@]2(C)c3cc(C(C)=O)c(C(C)C)cc3CC[C@@H]12`, the EC50 was more than 200 µM and the half-maximal inhibitory concentration (IC50) stood at 25.7 µM.
With `CC1C(O)Oc2cc3c(cc2C1c1ccccc1O)OCO3` (configuration not stated), the EC50 is more than 200 µM and the IC50 was 35.5 µM.
Turning to `CCOC(=O)/C(C1=N[C@H](C(=O)OCC)CS1)=C(\C)O`, the EC50 is more than 631 µM and the IC50 is more than 631 µM.
`Nc1c2cc3ccc2nc2ccc(cc12)OCCOCCOCCOCCOCCOCCO3`: the EC50 was more than 200 µM and the IC50 was more than 200 µM.
Take `CC12OC3(C(O)C1O)C(C(=O)O[C@H]3CO[Si](C)(C)C(C)(C)C)C2S(=O)(=O)c1ccccc1` (some centres not stated): the result was inactive.
Regarding `COc1cc(C(=O)C2CC3(CCC2(O)c2cc(OC)c(OC)c(OC)c2)CC(=O)Nc2ccccc2C3=O)cc(OC)c1OC` (configuration not stated), the EC50 was more than 200 µM and the half-inhibitory concentration (IC50) is more than 200 µM.
In the case of `CC(=O)OCC1OC(n2c(=O)n(-c3ccccc3)c(=O)c3cc(Br)cc(Br)c32)C(OC(C)=O)C(OC(C)=O)C1OC(C)=O` (configuration not stated), the EC50 was more than 13.8 µM and the half-maximal inhibitory concentration (IC50) was more than 13.8 µM.
In the case of `CN1CC[C@]2(C)c3ccc(O)cc3CC3CCCC1C32C` (some centres not stated), the outcome was inactive.
With `CCCC(=O)OC1CN2CC[C@H](O)C2C(O)[C@@H]1O` (some centres not stated), the EC50 is 2.29 µM and the half-inhibitory concentration (IC50) amounted to 955 µM.
For `Cc1occc1C(=S)Nc1ccc(Cl)c(COC(C)(C)C)c1`, the EC50 was 5.13 µM and the 50% inhibitory concentration (IC50) came out at 29.5 µM.
Take `Cc1cc(C)nc(NS(=O)(=O)c2ccc(NC(=O)c3cccc4cc5ccccc5nc34)cc2)n1`: the EC50 is more than 91.2 µM and the IC50 amounted to 3.8 µM.
`COC1/C=C\C=C(/C)C(=O)NC2=CC(=O)C(NCCCl)=C(CC(C)CC(OC)C(O)C(C)/C=C(/C)C1OC(N)=O)C2=O` (configuration not stated): the outcome was inactive.
With `NP(N)(=O)Nc1ccccc1`, the EC50 was 10.5 µM and the half-inhibitory concentration (IC50) is more than 200 µM.
Take `O=C1CSc2ccnc(=O)n21`: the EC50 was more than 200 µM and the 50% inhibitory concentration (IC50) is more than 200 µM.
Consider `COc1cc(OC)c(OC)cc1/C=C/c1cc[n+](C)c2ccccc12`, for which the EC50 is more than 200 µM and the 50% inhibitory concentration (IC50) came out at 7.59 µM.
As for `O=[N+]([O-])c1ccccc1S(=O)(=O)c1ccccc1[N+](=O)[O-]`, the concentration giving a half-maximal response (EC50) was 1.26 µM and the half-maximal inhibitory concentration (IC50) came to 145 µM.
On to `CCC(CCCCC1CC[C@H]2CC(=O)C[C@@H]12)OC` (some centres not stated), for which the EC50 was more than 200 µM and the half-inhibitory concentration (IC50) came to 107 µM.
In the case of `CN(NC1=NCCO1)c1ccc2ccccc2c1`, the EC50 is more than 200 µM and the IC50 came to 28.8 µM.
For the compound `Nc1c(N=Nc2ccc(/C=C/c3ccc(N=Nc4cc(S(=O)(=O)O)c5cccc(S(=O)(=O)O)c5c4N)cc3S(=O)(=O)O)c(S(=O)(=O)O)c2)cc(S(=O)(=O)O)c2cccc(S(=O)(=O)O)c12`, the 50% effective concentration (EC50) is 8.71 µM and the IC50 was determined as 77.6 µM.
Regarding `COc1cc(C(C#N)NNc2nc(C)cc(=O)[nH]2)cc(OC)c1OC` (configuration not stated), the EC50 was more than 105 µM and the IC50 was more than 105 µM.
As to `CCC1(c2ccc(N3C(=O)c4cccc5cc([N+](=O)[O-])cc(c45)C3=O)cc2)CCC(=O)NC1=O` (configuration not stated), the EC50 was more than 151 µM and the IC50 is 13.5 µM.
Turning to `CCN(CC)c1ccc(/C=C2\CCc3ccc([N+](=O)[O-])cc3C2=O)cc1`, the EC50 is more than 20 µM and the IC50 came out at 1.07 µM.
Taken in the same sequence, the figures for `Nc1nc2sc3ccccc3c(=O)n2n1` were more than 91.2 µM and more than 91.2 µM.
Regarding `Cc1cc(C)nc(NS(=O)(=O)c2ccc(NC(=O)c3ccc4nc5ccccc5c(Nc5ccc(S(=O)(=O)Nc6nc(C)cc(C)n6)cc5)c4c3)cc2)n1`, the EC50 is more than 200 µM and the IC50 turned out to be 29.5 µM.
For the compound `Cc1cc(=O)n2[nH]nnc2n1`, the EC50 was more than 200 µM and the half-maximal inhibitory concentration (IC50) was more than 200 µM.
As to `O=C1NCC2(CCNCC2)N1c1ccccc1`, the EC50 is more than 200 µM and the IC50 is more than 200 µM.
In the case of `Cc1ccc(NC(=O)C(=O)CC(=O)c2c(C)n([O-])c3ccccc3[n+]2=O)cc1`, the EC50 was more than 13.2 µM and the half-maximal inhibitory concentration (IC50) was more than 13.2 µM.
Turning to `c1ccc(C[n+]2ccc3c(c2)CCCC3)cc1`, the EC50 is more than 200 µM and the 50% inhibitory concentration (IC50) was determined as 40.7 µM.
Consider `COc1cc2c(cc1OC)[C@H]1C(COC(=O)c3ccccc3)CSC(=Nc3ccccc3)N1CC2` (some centres not stated), for which the EC50 was more than 10.2 µM and the IC50 is more than 10.2 µM.

As a reminder, the EC50 is the concentration needed to bring the measured effect to its halfway point. A word on the IC50: it is the point on the concentration scale where inhibition reaches its midpoint. Higher therefore signals lower potency.
